In patent US7223862B2, “Pyridone compounds useful for producing pyridine compounds” (Sumitomo Chemical Company, Limited, priority 2001, dated 2007):

Assays:
ivyleaf morning glory [1] = assay: Reference test example 1: foliar treatment, herbicidal activity; type: in vivo; conditions: foliage spray of emulsifiable concentrate, 125 g/ha, examined 12 days after spraying, greenhouse
Experimental: (§1) Cylindrical plastic pots, each of which has a diameter of 10 cm and a depth of 10 cm, were filled with soil, and then seeded with ivyleaf morning glory and velvetleaf. The test plants were grown in a greenhouse for 10 days. Then, each of the compounds 1, 2, 3, 6, 8, 12, 15, 16, 19, 21, 40, 59 and 76 was formulated into an emulsifiable concentrate according to Reference formulation example 2, and diluted with water containing a spreading agent. The dilution was uniformly sprayed over the foliage of the test plants with a sprayer at a rate of 1000 liters per hectare. After spraying, the test plants were grown in the greenhouse for 12 days, and the herbicidal activity was examined.

velvetleaf [2] = assay: as above; type: in vivo; conditions: foliage spray of emulsifiable concentrate, 125 g/ha, examined 12 days after spraying, greenhouse
Experimental: as §1

ivyleaf morning glory [3] = assay: Reference test example 2: soil surface treatment, herbicidal activity; type: in vivo; conditions: soil surface spray of emulsifiable concentrate, 500 g/ha, examined 19 days after spraying, greenhouse
Source text: as §1, with “velvetleaf. Each” for “velvetleaf. The test plants were grown in a greenhouse for 10 days. Then, each”, “with water.” for “with water containing a spreading agent.”, “the soil surface” for “the foliage of the test plants”, “for 19” for “for 12”

velvetleaf [4] = assay: as above; type: in vivo; conditions: soil surface spray of emulsifiable concentrate, 500 g/ha, examined 19 days after spraying, greenhouse
Source text: as §1, with “velvetleaf. Each” for “velvetleaf. The test plants were grown in a greenhouse for 10 days. Then, each”, “with water.” for “with water containing a spreading agent.”, “the soil surface” for “the foliage of the test plants”, “for 19” for “for 12”

COC(=O)COc1ncccc1Oc1cc(-n2c(=O)cc(C(F)(F)F)n(C)c2=O)c(F)cc1[N+](=O)[O-] [Compound 59]
herbicidal activity (control of growth) (ivyleaf morning glory [1]): perfectly controlled the growth | herbicidal activity (control of growth) (velvetleaf [2]): perfectly controlled the growth | herbicidal activity (control of growth) (ivyleaf morning glory [3]): perfectly controlled the growth | herbicidal activity (control of growth) (velvetleaf [4]): perfectly controlled the growth

COC(=O)COc1ncccc1Oc1cc(-n2c(=O)cc(C(F)(F)F)n(C)c2=O)c(F)cc1C#N [Compound 40]
herbicidal activity (control of growth) (ivyleaf morning glory [1]): perfectly controlled the growth | herbicidal activity (control of growth) (velvetleaf [2]): perfectly controlled the growth | herbicidal activity (control of growth) (ivyleaf morning glory [3]): perfectly controlled the growth | herbicidal activity (control of growth) (velvetleaf [4]): perfectly controlled the growth

COC(=O)COc1ncccc1Oc1cc(-n2c(=O)cc(C(F)(F)F)n(C)c2=O)c(F)cc1Br [Compound 21]
herbicidal activity (control of growth) (ivyleaf morning glory [1]): perfectly controlled the growth | herbicidal activity (control of growth) (velvetleaf [2]): perfectly controlled the growth | herbicidal activity (control of growth) (ivyleaf morning glory [3]): perfectly controlled the growth | herbicidal activity (control of growth) (velvetleaf [4]): perfectly controlled the growth

Cn1c(C(F)(F)F)cc(=O)n(-c2cc(Oc3cccnc3OCC(=O)O)c(Cl)cc2F)c1=O [Compound 1]
herbicidal activity (control of growth) (ivyleaf morning glory [1]): perfectly controlled the growth | herbicidal activity (control of growth) (velvetleaf [2]): perfectly controlled the growth | herbicidal activity (control of growth) (ivyleaf morning glory [3]): perfectly controlled the growth | herbicidal activity (control of growth) (velvetleaf [4]): perfectly controlled the growth

COC(=O)COc1ncccc1Oc1cc(-n2c(=O)cc(C(F)(F)F)n(C)c2=O)c(F)cc1Cl [Compound 2, 3-[2-chloro-4-fluoro-5-(3-methyl-2,6-dioxo-4-trifluoromethyl-1,2,3,6-tetrahydropyrimidin-1-yl)phenoxy]-2-(methoxycarbonylmethoxy)pyridine]
herbicidal activity (control of growth) (ivyleaf morning glory [1]): perfectly controlled the growth | herbicidal activity (control of growth) (velvetleaf [2]): perfectly controlled the growth | herbicidal activity (control of growth) (ivyleaf morning glory [3]): perfectly controlled the growth | herbicidal activity (control of growth) (velvetleaf [4]): perfectly controlled the growth

Cn1c(C(F)(F)F)cc(=O)n(-c2cc(Oc3ccc[nH]c3=O)c(Cl)cc2F)c1=O [Compound 76, 3-[2-chloro-4-fluoro-5-(3-methyl-2,6-dioxo-4-trifluoromethyl-1,2,3,6-tetrahydropyrimidin-1-yl)phenoxy]-1H-pyridin-2-one]
herbicidal activity (control of growth) (ivyleaf morning glory [1]): perfectly controlled the growth | herbicidal activity (control of growth) (velvetleaf [2]): perfectly controlled the growth | herbicidal activity (control of growth) (ivyleaf morning glory [3]): perfectly controlled the growth | herbicidal activity (control of growth) (velvetleaf [4]): perfectly controlled the growth | melting point: 180.8 °C

CCOC(=O)COc1ncccc1Oc1cc(-n2c(=O)cc(C(F)(F)F)n(C)c2=O)c(F)cc1Cl [Compound 3, 3-[2-chloro-4-fluoro-5-(3-methyl-2,6-dioxo-4-trifluoromethyl-1,2,3,6-tetrahydropyrimidin-1-yl)phenoxy]-2-(ethoxycarbonylmethoxy)pyridine]
herbicidal activity (control of growth) (ivyleaf morning glory [1]): perfectly controlled the growth | herbicidal activity (control of growth) (velvetleaf [2]): perfectly controlled the growth | herbicidal activity (control of growth) (ivyleaf morning glory [3]): perfectly controlled the growth | herbicidal activity (control of growth) (velvetleaf [4]): perfectly controlled the growth
